Test results taken from paper PMC11111404, “Discovery of potent small-molecule inhibitors of lipoprotein(a) formation” (Nature, 2024).

Columns and labels:
apo(a) KIV5–8 = target: T1, apo(a) KIV5–8 (Homo sapiens, UniProt P08519); assay: ITC binding to apo(a) KIV5–8
T1 construct: made in house
T1 sequence (P08519 1043-1470 limits assumed): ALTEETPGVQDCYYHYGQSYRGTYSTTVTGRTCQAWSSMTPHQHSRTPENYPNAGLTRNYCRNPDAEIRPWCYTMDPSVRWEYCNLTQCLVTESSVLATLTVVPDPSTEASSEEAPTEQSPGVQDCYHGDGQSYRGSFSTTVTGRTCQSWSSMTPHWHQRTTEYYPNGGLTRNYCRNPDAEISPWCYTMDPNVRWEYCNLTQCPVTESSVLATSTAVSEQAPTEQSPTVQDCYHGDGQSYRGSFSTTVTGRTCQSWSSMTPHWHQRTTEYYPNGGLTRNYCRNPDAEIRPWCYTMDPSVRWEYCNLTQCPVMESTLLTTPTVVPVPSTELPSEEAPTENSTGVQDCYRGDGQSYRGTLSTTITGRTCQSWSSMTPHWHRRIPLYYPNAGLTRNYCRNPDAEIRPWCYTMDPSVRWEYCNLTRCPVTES
Experimental: The nucleotide sequence encoding the human LPA gene (NP_005568.2) was inserted into a mammalian expression vector containing a cytomegalovirus promoter. Protein expression was performed by transient transfection of human embryonic kidney 293 (HEK293) cells cultured in serum-free medium. The culture medium was collected five days after transfection and human apo(a) protein was purified using L-lysine affinity chromatography. Nucleotide sequences encoding various KIV domains of human apo(a) and human and rat plasminogen were inserted into a pET21a Escherichia coli expression vector. Bacterial BL21(DE3) was used as the expression host, and the induction of protein expression was performed in 2× TY medium with 1 mM isopropyl β-D-1-thiogalactopyranoside at 37 °C for 5 h. Cells were collected and stored at –80 °C for subsequent protein purification and refolding. […] All protein concentrations were determined by A280.
Experiments were performed on a MicroCal Auto-iTC200 titration calorimeter (Malvern Panalytical), with a cell volume of 200 μl and a 40-μl microsyringe. […] The microsyringe was loaded with a solution of the respective compounds, with the concentration measured by quantitative nuclear magnetic resonance, and was inserted into the calorimetric cell prefilled with the respective recombinant proteins of known concentration in ITC buffer. […]

[1] = target: T2, K-2 to K-3 domains of human plasminogen (Homo sapiens, UniProt P00747); assay: ITC binding to human plasminogen K-2 to K-3
T2 construct: that for the K-2 to K-3 domains of human plasminogen; made in house
T2 sequence (P00747 184-352 limits assumed): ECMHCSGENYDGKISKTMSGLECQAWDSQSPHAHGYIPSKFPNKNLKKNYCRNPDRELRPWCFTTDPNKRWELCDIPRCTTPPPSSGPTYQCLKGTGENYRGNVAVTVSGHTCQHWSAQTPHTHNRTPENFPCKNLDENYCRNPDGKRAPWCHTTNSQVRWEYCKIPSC
Experimental: The nucleotide sequence encoding the human LPA gene (NP_005568.2) was inserted into a mammalian expression vector containing a cytomegalovirus promoter. Protein expression was performed by transient transfection of human embryonic kidney 293 (HEK293) cells cultured in serum-free medium. The culture medium was collected five days after transfection and human apo(a) protein was purified using L-lysine affinity chromatography. Nucleotide sequences encoding various KIV domains of human apo(a) and human and rat plasminogen were inserted into a pET21a Escherichia coli expression vector. […] All protein concentrations were determined by A280. […] The microsyringe was loaded with a solution of the respective compounds, with the concentration measured by quantitative nuclear magnetic resonance, and was inserted into the calorimetric cell prefilled with the respective recombinant proteins of known concentration in ITC buffer. […] Thermodynamic parameters were calculated using the basic equation of thermodynamics (ΔG = ΔH - TΔS = -RTlnKd), where ΔG, ΔH and ΔS are the changes in free energy, enthalpy and entropy of binding, respectively; Kd is the equilibrium dissociation constant; T is the absolute temperature ([…]); and R is the gas constant (1.987 cal mol^-1 K^-^1). […]

Kd (apo(a) KIV5–8): < 15 nM
Kd [1]: 1600 nM
Structure (SMILES): Cl.Cl.O=C(Nc1cccc(C[C@H](C(=O)O)[C@H]2CCNC2)c1)Nc1cccc(C[C@H](C(=O)O)[C@H]2CCNC2)c1 [LSN3441732]
